Measured values taken from PubChem BioAssay AID1259407 (Chemical Carcinogenesis Research Information System (CCRIS), 2018).
The source made the active and inactive calls. How the calls were made is not given here.

Tested on: CCRIS mutagenicity, Ames/micronucleus/aberration tests
Assay: CCRIS mutagenicity studies
[1] = Test System: AMES SALMONELLA TYPHIMURIUM, Strain/Indicator: TA97, Metabolic Activation: NONE, Method: STANDARD PLATE
[2] = Test System: AMES SALMONELLA TYPHIMURIUM, Strain/Indicator: TA98, Metabolic Activation: NONE, Method: STANDARD PLATE
[3] = Test System: AMES SALMONELLA TYPHIMURIUM, Strain/Indicator: TA100, Metabolic Activation: NONE, Method: STANDARD PLATE
[4] = Test System: AMES SALMONELLA TYPHIMURIUM, Strain/Indicator: TA98, Metabolic Activation: NONE, Method: PREINCUBATION

Structure (SMILES): COP(=O)(OC)SC
- mutagenic call [1]: inactive; negative
- mutagenic call (Test System: AMES SALMONELLA TYPHIMURIUM, Strain/Indicator: TA97, Metabolic Activation: RAT, LIVER, S-9, AROCLOR 1254, Method: PREINCUBATION): inactive; negative
- mutagenic call (Test System: AMES SALMONELLA TYPHIMURIUM, Strain/Indicator: TA97, Metabolic Activation: RAT, LIVER, S-9, AROCLOR 1254, Method: STANDARD PLATE): inactive; negative
- mutagenic call [2]: inactive; negative
- mutagenic call (Test System: AMES SALMONELLA TYPHIMURIUM, Strain/Indicator: TA98, Metabolic Activation: RAT, LIVER, S-9, AROCLOR 1254, Method: PREINCUBATION): inactive; negative
- mutagenic call (Test System: AMES SALMONELLA TYPHIMURIUM, Strain/Indicator: TA98, Metabolic Activation: RAT, LIVER, S-9, AROCLOR 1254, Method: STANDARD PLATE): inactive; negative
- mutagenic call [3]: inactive; negative
- mutagenic call (Test System: AMES SALMONELLA TYPHIMURIUM, Strain/Indicator: TA100, Metabolic Activation: RAT, LIVER, S-9, AROCLOR 1254, Method: PREINCUBATION): inactive; negative
- mutagenic call (Test System: AMES SALMONELLA TYPHIMURIUM, Strain/Indicator: TA100, Metabolic Activation: RAT, LIVER, S-9, AROCLOR 1254, Method: STANDARD PLATE): inactive; negative

Structure (SMILES): CCCCCNC(=O)/C=C/c1ccc([N+](=O)[O-])o1
- mutagenic call [4]: active; positive

Structure (SMILES): O=c1c(O)c(-c2ccc(O)c(O)c2)oc2cc(O)cc(O)c12
- mutagenic call (End Point: IN VIVO MICRONUCLEUS, Test System: BONE MARROW POLYCHROMATIC ERYTHROCYTES, Species: MOUSE, Strain/Sex: DDY/MALE, Route: IP): inactive; negative
- mutagenic call (End Point: In vivo micronucleus, Test System: Bone marrow polychromatic erythrocytes, Species: Rat, Strain/Sex: Wistar/Male, Route: Oral (gavage)): inactive; negative
- mutagenic call [1]: active; positive
- mutagenic call (Test System: AMES SALMONELLA TYPHIMURIUM, Strain/Indicator: TA97A, Metabolic Activation: NONE, Method: STANDARD PLATE): active; positive
- mutagenic call (Test System: AMES SALMONELLA TYPHIMURIUM, Strain/Indicator: TA97A, Metabolic Activation: RAT, LIVER, S9, AROCLOR 1254, Method: STANDARD PLATE): active; positive
- mutagenic call (Test System: AMES SALMONELLA TYPHIMURIUM, Strain/Indicator: TA98, Metabolic Activation: HAMSTER, LIVER, S9, AROCLOR 1254 (30%), Method: PREINCUBATION): active; positive
- mutagenic call (Test System: AMES SALMONELLA TYPHIMURIUM, Strain/Indicator: TA98, Metabolic Activation: NONE, Method: FLUCTUATION (MICROTITER)): active; positive
- mutagenic call [4]: active; positive
- mutagenic call [2]: active; positive
- mutagenic call (Test System: AMES SALMONELLA TYPHIMURIUM, Strain/Indicator: TA98, Metabolic Activation: RAT, LIVER, CYTOSOL, Method: PREINCUBATION): active; positive
- mutagenic call (Test System: AMES SALMONELLA TYPHIMURIUM, Strain/Indicator: TA98, Metabolic Activation: RAT, LIVER, S9, 5,6-BENZOFLAVONE AND/OR SODIUM PHENOBARBITAL, Method: PREINCUBATION): active; positive
- mutagenic call (Test System: AMES SALMONELLA TYPHIMURIUM, Strain/Indicator: TA98, Metabolic Activation: RAT, LIVER, S9, AROCLOR 1254 (30%), Method: PREINCUBATION): active; positive
- mutagenic call (Test System: AMES SALMONELLA TYPHIMURIUM, Strain/Indicator: TA98, Metabolic Activation: RAT, LIVER, S-9, PHENOBARBITAL, Method: STANDARD PLATE): active; positive
- mutagenic call (Test System: AMES SALMONELLA TYPHIMURIUM, Strain/Indicator: TA98, Metabolic Activation: S9, GLUCOSE-6-PHOSPHATE AND NADP, Method: STANDARD PLATE): active; positive
- mutagenic call (Test System: AMES SALMONELLA TYPHIMURIUM, Strain/Indicator: TA98, Metabolic Activation: S9, Method: STANDARD PLATE): active; positive
- mutagenic call (Test System: AMES SALMONELLA TYPHIMURIUM, Strain/Indicator: TA98, Metabolic Activation: S-100, GLUCOSE-6-PHOSPHATE AND NADP, Method: STANDARD PLATE): active; positive
- mutagenic call (Test System: AMES SALMONELLA TYPHIMURIUM, Strain/Indicator: TA98, Metabolic Activation: S-100, Method: STANDARD PLATE): active; positive
- mutagenic call (Test System: AMES SALMONELLA TYPHIMURIUM, Strain/Indicator: TA100, Metabolic Activation: HAMSTER, LIVER, S9, AROCLOR 1254 (30%), Method: PREINCUBATION): active; positive
- mutagenic call (Test System: AMES SALMONELLA TYPHIMURIUM, Strain/Indicator: TA100, Metabolic Activation: NONE, Method: PREINCUBATION): active; positive
- mutagenic call [3]: active; positive
- mutagenic call (Test System: AMES SALMONELLA TYPHIMURIUM, Strain/Indicator: TA100, Metabolic Activation: RAT, LIVER, S9, AROCLOR 1254 (30%), Method: PREINCUBATION): active; positive
- mutagenic call (Test System: AMES SALMONELLA TYPHIMURIUM, Strain/Indicator: TA100, Metabolic Activation: RAT, LIVER, S-9, PHENOBARBITAL, Method: STANDARD PLATE): active; positive
- mutagenic call (Test System: AMES SALMONELLA TYPHIMURIUM, Strain/Indicator: TA102, Metabolic Activation: RAT, LIVER, S9, AROCLOR 1254, Method: STANDARD PLATE): active; positive
- mutagenic call (Test System: AMES SALMONELLA TYPHIMURIUM, Strain/Indicator: TA1535, Metabolic Activation: NONE, Method: STANDARD PLATE): inactive; negative
- mutagenic call (Test System: AMES SALMONELLA TYPHIMURIUM, Strain/Indicator: TA1537, Metabolic Activation: NONE, Method: FLUCTUATION (MICROTITER)): active; positive
- mutagenic call (Test System: AMES SALMONELLA TYPHIMURIUM, Strain/Indicator: TA1538, Metabolic Activation: NONE, Method: STANDARD PLATE): active; positive
- mutagenic call (Test System: AMES SALMONELLA TYPHIMURIUM, Strain/Indicator: TA7001, Metabolic Activation: NONE, Method: FLUCTUATION (MICROTITER)): inactive; negative
- mutagenic call (Test System: AMES SALMONELLA TYPHIMURIUM, Strain/Indicator: TA7002, Metabolic Activation: NONE, Method: FLUCTUATION (MICROTITER)): active; positive
- mutagenic call (Test System: AMES SALMONELLA TYPHIMURIUM, Strain/Indicator: TA7003, Metabolic Activation: NONE, Method: FLUCTUATION (MICROTITER)): inactive; negative
- mutagenic call (Test System: AMES SALMONELLA TYPHIMURIUM, Strain/Indicator: TA7004, Metabolic Activation: NONE, Method: FLUCTUATION (MICROTITER)): active; positive
- mutagenic call (Test System: AMES SALMONELLA TYPHIMURIUM, Strain/Indicator: TA7005, Metabolic Activation: NONE, Method: FLUCTUATION (MICROTITER)): active; positive
- mutagenic call (Test System: AMES SALMONELLA TYPHIMURIUM, Strain/Indicator: TA7006, Metabolic Activation: NONE, Method: FLUCTUATION (MICROTITER)): inactive; negative
- mutagenic call (Test System: Ames Salmonella typhimurium, Strain/Indicator: TA98, Metabolic Activation: None, Method: Standard plate): active; positive
- mutagenic call (Test System: Ames Salmonella typhimurium, Strain/Indicator: TA98, Metabolic Activation: Rat, Liver, S9, Aroclor 1254, Method: Standard plate): active; positive
- mutagenic call (Test System: Ames Salmonella typhimurium, Strain/Indicator: TA100, Metabolic Activation: None, Method: Standard plate): active; positive
- mutagenic call (Test System: Ames Salmonella typhimurium, Strain/Indicator: TA100, Metabolic Activation: Rat, Liver, S9, Aroclor 1254, Method: Standard plate): active; positive
- mutagenic call (Test System: Ames Salmonella typhimurium, Strain/Indicator: TA102, Metabolic Activation: Fe ++ (1 uM) with NADPH generating system, Method: Preincubation): active; positive
- mutagenic call (Test System: Ames Salmonella typhimurium, Strain/Indicator: TA102, Metabolic Activation: None, Method: Preincubation): active; positive
- mutagenic call (Test System: Ames Salmonella typhimurium, Strain/Indicator: TA102, Metabolic Activation: Rat, Liver, S9, Aroclor 1254, Method: Preincubation): active; positive
- mutagenic call (Test System: Ames Salmonella typhimurium, Strain/Indicator: TA102, Metabolic Activation: Rat, Liver, S-9, Aroclor 1254 in 0.154 M KCl, Method: Preincubation): active; positive
- mutagenic call (Test System: E. coli, Strain/Indicator: WP2 uvrA, Metabolic Activation: Fe ++ (1 uM) with NADPH generating system, Method: Preincubation): active; positive
- mutagenic call (Test System: E. coli, Strain/Indicator: WP2 uvrA, Metabolic Activation: None, Method: Preincubation): active; positive
- mutagenic call (Test System: E. coli, Strain/Indicator: WP2 uvrA, Metabolic Activation: Rat, Liver, S9, Aroclor 1254, Method: Preincubation): active; positive
- mutagenic call (Test System: UDS RAT GASTRIC MUCOSAL CELLS, Strain/Indicator: THY INCORP, Metabolic Activation: NONE, Method: LIQUID SCINTILLATION COUNTING): inactive; negative
- mutagenic call (Test System: UDS Rat hepatocytes, Strain/Indicator: Wistar (Male and female), Method: Autoradiography): inactive; negative

Structure (SMILES): CC1(C)SC2[C@H](NC(=O)C(N)c3ccccc3)C(=O)N2[C@H]1C(=O)O.[Cl][Pt].[H+] (some centres not stated)
- mutagenic call (Test System: MOUSE LYMPHOMA, Strain/Indicator: L5178Y(LY-R) (HGPRT)/6-THIOGUANINE, Metabolic Activation: NONE): inactive; negative

Structure (SMILES): CCCN(CC(C)O)N=O (configuration not stated)
- mutagenic call (Test System: CHINESE HAMSTER V-79, Strain/Indicator: V-79/OUABAIN, Metabolic Activation: HAMSTER, HEPATOCYTES, Method: CELL-MEDIATED): active; positive
